According to paper PMC4784921, “Antioxidant Activity and α-Glucosidase Inhibitory Activities of the Polycondensate of Catechin with Glyoxylic Acid” (PLoS ONE, 2016):
Values after ≈ are worked out from the molar mass of the structure shown.

Biological target: T1, α-glucosidase (from Saccharomyces cerevisiae)
T1 construct: gene MAL12; commercial enzyme from Sigma (St. Louis, MO)
Assay: absorbance at […] nm, pNP-G hydrolysis
Type: biochemical
Details: pNP-G substrate (1 mL of 1 mM), 0.1 M PBS pH 6.9, 37°C, 10 min preincubation; mixed noncompetitive and anticompetitive

IC50: 239.27 µg/mL (≈ 824 µM)
Structure (SMILES): Oc1cc(O)c2c(c1)O[C@H](c1ccc(O)c(O)c1)[C@@H](O)C2 [catechin]
